pIC50: −log10 of the molar value. Entries after “also recorded” stand apart in the source; their conditions may differ. Like-named read-outs stand apart in the source and are kept apart here.
How the values were obtained:
[1] = tested on: RPMI-8226 multiple myeloma cells; test: Anti-proliferation assay, Cell Titer-Glo (Example 3); type: cell-based, human; settings: 96 hours total culture
Description: (§1) To determine the growth inhibitory activity of tris(8-quinolinolato)gallium(III) and lenalidomide, a representative panel of human multiple myeloma tumor cell lines (OPM-2, RPMI-8226, NCI-H929 and ARH-77) were tested with the compounds in anti-proliferation assays. Specifically, the human tumor cells were placed in a 96-well microculture plate at the appropriate density for 96 hours of total growth time. After 24 hours of incubation in a humidified incubator at 37° C. with 5% CO2 and 95% air, serially diluted test agents in growth medium were added to each well. After 96 total hours of culture in a CO2 incubator, the plates were processed with Cell Titer-Glo (Promega #G7571) according to manufacturer's instructions. Luminescence was detected using a Tecan GENios microplate reader. Percent inhibition of cell growth was calculated relative to untreated control wells. All tests were performed in duplicate at each concentration level.
(§2) The IC50 value for the test agents was estimated using Prism 3.03 by curve-fitting the data using the following four parameter-logistic equation: […]
(§3) where Top is the maximal % of control absorbance, Bottom is the minimal % of control absorbance at the highest agent concentration, Y is the % of control absorbance, X is the agent concentration, IC50 is the concentration of agent that inhibits cell growth by 50% compared to the control cells, and n is the slope of the curve.

[2] = tested on: ARH-77 multiple myeloma cells; test: as above; type: cell-based, human; settings: 96 hours total culture
Description: as §1, §2, §3

[3] = tested on: OPM-2 multiple myeloma cells; test: as above; type: cell-based, human; settings: 96 hours total culture
Description: as §1, §2, §3

[4] = tested on: NCI-H929 multiple myeloma cells; test: as above; type: cell-based, human
Description: as §1, §2, §3

[5] = tested on: caspase-9 and caspase-3 in BJAB cells; test: Western blot analysis of caspase activation; type: cell-based, human; settings: 24 hours
Description: FIG. 6 includes chromatograms showing Western blot analysis of tris(8-quinolinolato)gallium(III)-treated BJAB cells. Epirubicin was used as a positive control. After incubation for 24 hours the protein extracts were fractionated on a denaturating 4-20% polyacrylamide gel, transferred to nitrocellulose and detected with anti-caspase-31-9 and anti-β-actin antibody. A: caspase-9 (procaspase: 47 kDa; cleavage product: 37 kDa), B: caspase-3 (procaspase: 32 kDa; cleavage products: 18 and 17 kDa), C: β-actin (42 kDa);
For Western blot analysis, cytosolic protein ([…]) was loaded in each lane and was separated by sodium dodecylsulfate (SDS) PAGE. After blotting of proteins onto nitrocellulose membranes (Schleicher and Schuell, Dassel, Germany), the membrane was blocked for 1 h in PBST (PBS containing 0.05% Tween-20) containing 3% nonfat dry milk and incubated with primary antibody overnight at 4° C. After the membrane had been washed three times in PBST, secondary antibody in PBST was applied for 1 h. […]
Further evidence for apoptosis via the intrinsic pathway was obtained by investigating the consecutive activation of caspase-9 and -3 by Western blot analysis. […] The activation of both caspases by proteolytic cleavage was determined after treatment of BJAB cells with tris(8-quinolinolato)gallium(III). […]

[6] = tested on: caspase-5 gene expression in BJAB cells; test: Real-time PCR apoptosis gene expression array; type: cell-based, human; settings: 2.5 μM, 8 hours
Description: (§4) For the analysis of the differential expression of multiple genes involved in the different apoptosis pathways, apoptosis-specific RT2 profiler (polymerase chain reaction) PCR expression arrays (SuperArray PAHS-012; SABiosciences Corporation, Frederick, Md., USA) was used according to the manufacturer's instructions. Total RNA was extracted from BJAB cells treated with […] for 8 hours, and RNAs were treated with DNase I (2 U/μl) to eliminate possible genomic DNA contamination. Total RNA (700 ng/μl) was then used as a template for the synthesis of a cDNA probe and subjected to quantitative real-time PCR SuperArray analysis according to the manufacturer's instructions using a LightCycler480 (Roche Diagnostics). The means of nine housekeeping genes were used to normalize the hybridization signals. Results were analyzed using SuperAnay Analyser Software, and the data are given in-fold expression of the respective genes as compared with control cells incubated in vehicle-containing medium for 8 hours.
(§5) Changes of transcript levels of apoptosis relevant genes were analyzed in RNA isolated from BJAB cells after 8 hours of incubation with 2.5 μM tris(8-quinolinolato)gallium(III). […] Harakiri (Hrk) is a pro-apoptotic Bcl-2 homology domain 3-only protein of the Bcl-2 family.

[7] = tested on: Harakiri gene expression in BJAB cells; test: Real-time PCR apoptosis gene expression array; type: cell-based, human; settings: 2.5 μM, 8 hours
Description: as §4, §5

[8] = tested on: daunorubicin-resistant Nalm-6 cells; settings: daunorubicin-resistant Nalm-6, P-gp overexpressing; 72 hours
Description: (§7) After 72 hours of incubation with different concentrations of the agent, DNA fragmentation was measured via FACS scan analysis. […] Values of DNA fragmentation are given as percentages of cells with hypodiploid DNA±s.d. (n=3);
(§8) Apoptotic cell death was determined by a modified cell cycle-analysis, which detects. DNA fragmentation on the single cell level. […] After a 72-hour incubation period at a temperature of 37° C., cells were collected by centrifugation at 1500 rpm for 5 min, washed with PBS at 4° C. and fixed in PBS/2% (v/v) formaldehyde on ice for 30 minutes. After fixation, cells were pelleted, incubated with ethanol/PBS (2:1, v/v) for 15 minutes, pelleted and resuspended in PBS containing 40 μg/ml RNase. RNA was digested for 30 minutes at a temperature of 37° C., after which the cells were pelleted again and finally resuspended in PBS containing 50 μg/ml propidium iodide. Nuclear DNA fragmentation was quantified by flow cytometric determination of hypodiploid DNA. Data were collected and analyzed using a FACScan instrument (Becton Dickinson, Heidelberg, Germany) equipped with CELL Quest software. Data are given in percent hypodiploidy (subG1), which reflects the number of apoptotic cells.

[9] = tested on: vincristine-resistant Nalm-6 cells; settings: vincristine-resistant Nalm-6, P-gp overexpressing; 72 hours
Description: as §7, §8

MV4-11 leukemia cells = test: Cell growth inhibition, Cell Titer-Glo (Example 4); type: cell-based, human; settings: 96 total hours of culture
Description: The human leukemia cell line MV4-11 cells were placed in a 96-well microculture plate (Costar white, flat bottom #3917) in a total volume of 90 μL/well. After 24 hours of incubation in a humidified incubator at 37° C. with 5% CO2 and 95% air, 10 μL of 10×, serially diluted tris(8-quinolinolato)gallium(III) in growth medium was added to each well. After 96 total hours of culture in a CO2 incubator, the plated cells and Cell Titer-Glo (Promega #G7571) reagents were brought to room temperature to equilibrate for 30 minutes. 100 μL of Cell Titer-Glo® reagent was added to each well. The plate was shaken for 2 minutes and then left to equilibrate for 10 minutes before reading luminescence on the Tecan GENios microplate reader. Percent inhibition of cell growth was calculated relative to untreated control wells. All tests were performed in duplicate at each concentration level. The IC50 value for the test agent was estimated using Prism 3.03 by curve-fitting the data using the following four parameter-logistic equation: […]
where Top is the maximal % of control absorbance, Bottom is the minimal of control absorbance at the highest agent concentration, Y is the % of control absorbance, X is the agent concentration, IC50 is the concentration of agent that inhibits cell growth by 50% compared to the control cells, and n is the slope of the curve. […]

[10] = tested on: WSU-DLCL2 Human B Cell Lymphoma cells; test: Anti-proliferation assay, Cell Titer-Glo (Example 6); type: cell-based; settings: 96 total hours of culture
Description: (§6) To determine the antiproliferative activity of tris(8-quinolinolato)gallium(III) in human lymphoma tumor cell lines, anti-proliferation assays were conducted in the DoHH2. Granta 519, and WSU-DLCL2 cell lines. The DoHH2 Human EBV-negative B Cell Lymphoma cells were seeded with 5,000 cells/well and grown in RPMI1640 medium containing 20% FBS, and 2 mM L-Glutamine. The Granta 519 Human Mantle Cell Lymphoma cells were seeded with 10,000 cells/well and grown in DMEM medium containing 10% FBS, and 2 mM L-Glutamine. The WSU-DLCL2 Human B Cell Lymphoma cells were seeded with 5,000 cells/well and grown in RPMI1640 medium containing 10% FBS, and 2 mM L-Glutamine. Specifically, the human tumor cells were placed in a 96-well microculture plate at the appropriate density for 96 hours of total growth time. After 24 hours of incubation in a humidified incubator at 37° C. with 5% CO2 and 95% air, serially diluted test agents in growth medium were added to each well. After 96 total hours of culture in a CO2 incubator, the plates were processed with Cell Titer-Glo (Promega #G7571) according to manufacturer's instructions. Luminescence was detected using a Tecan GENios microplate reader. Percent inhibition of cell growth was calculated relative to untreated control wells. All tests were performed in duplicate at each concentration level. The IC50 value for the test agents was estimated using Prism 3.03 by curve-fitting the data using the four parameter-logistic equation as described in Example 4 above. […] It is known that WSU-DLCL2 cells are resistant to the CHOP (cyclophosphamide, adriamycin, vincristine, prednisone) regimen. See Levi et al., Cancer Chemother. Pharmacal., (published online Aug. 31, 2010). Thus, tris(8-quinolinolato)gallium(III) is also active against lymphoma cells resistant to drugs. such as cyclophosphamide, adriamycin, vincristine, prednisone.

[11] = tested on: Granta 519 Human Mantle Cell Lymphoma cells; test: as above; type: cell-based; settings: 96 total hours of culture
Description: as §6

[12] = tested on: DoHH2 Human EBV-negative B Cell Lymphoma cells; test: as above; type: cell-based; settings: 96 total hours of culture
Description: as §6

BJAB lymphoma cells [13] = test: Apoptosis induction, flow cytometric hypodiploid DNA (DNA fragmentation); type: cell-based, human; settings: 72 hours
Description: FIG. 3 is a diagram showing apoptosis induction measured via flow cytometric determination of hypodiploid DNA in BJAB cells after treatment with tris(8-quinolinolato)gallium(III) for 72 hours. Data are given in % hypodiploidy (subG1)±ESD (n=3), which is consistent with the number of apoptotic cells;
DNA fragmentation on the single cell level.
To quantify the induction of apoptosis triggered by tris(8-quinolinolato)gallium(III) we determined the DNA fragmentation (hypodiploidy) as a characteristic effect of apoptotic cell death. The procedure was conducted by flow cytometric measurement of hypodiploid DNA after incubating lymphoma cells (BJAB) for 72 hours with the agent. Extensive apoptosis induction could be reached even in low concentrations of the agent (AC50: ˜1 μM), seen in FIG. 3.

BJAB lymphoma cells [14] = test: LDH release cytotoxicity assay; type: cell-based, human; settings: 1 hour exposure
Description: Cytotoxicity of the different drugs was measured by the release of lactate dehydrogenase (LDH). After incubation with different concentrations of tris(8-quinolinolato)gallium(III) for 1 hour, LDH activity released by BJAB cells was measured in the cell culture supernatants using the Cytotoxicity Detection Kit from Boehringer Mannheim® (Mannheim, Germany). The supernatants were centrifuged at 1500 rpm for 5 min. 20 μl of cell-free supernatants were diluted with 80 μl phosphate-buffered saline (PBS), and 100 μl reaction mixture containing 2-[4-iodophenyl]-3-[4-nitrophenyl]-5-phenyltetrazolium chloride (INT), sodium lactate, […] and diaphorase were added. Then, time-dependent formation of the reaction product was quantified photometrically at 490 nm. The maximum amount of LDH activity released by the cells was determined after lysis of the cells using 0.1% Triton X-100 in culture medium and set to represent 100% cell death.
Unspecific cytotoxic effects of the agent such as necrosis could be excluded by determination of extra cellular lactate dehydrogenase (LDH) via ELISA detection.

[15] = tested on: CCRF-CEM, Jurkat, MOLT-4 cell lines; settings: read-out: IC50, inhibiting cell growth and proliferation; all cell lines of Table 1; 48 hours with drug; XTT
Description: Cells have been expanded under appropriate culture conditions until sufficient cells were available for the assay. Adherent cells were trypsinated. Cell count and viability of the cells were determined (Casy T T, Schärfe Systems). The Cells (viability >95%) were seeded in 100 μl of cell culture medium at the appropriate density of living cells into 96-well tissue culture plates. The cells were incubated at 37° C. and 5% CO2 for 24 hours.
For a negative control, 100 μl of cell culture medium were added to three wells (100% value). For a positive control all cells were deadened with phenol (0% value). The cells were incubated with the drug for further 48 hours at 37° C. and 5% CO2.
XTT assays were performed on the above treated cells. XTT is a tetrazolium salt that can be cleaved by “succinate-tetrazolium reductase”, a mitochondrial redox-system that is exclusively active in living cells. The cleavage results in a soluble formazan salt that can be quantified by colorimetric measuring at 450 nm. The intensity of the orange color is directly linked to the number of living, metabolically active cells. A concentrated stock solution (1 mg/ml PBS) of XTT (Sigma-Aldrich) was prepared, aliquoted, filtered and stored at −20° C. […] The developed formazan was quantified in an absorbance micro plate reader (Genios, Tecan) at a measurement wavelength of 450 nm and a reference wavelength of 690 nm.

BJAB lymphoma cells [16] = test: Cell viability and proliferation, CASY Cell Counter; type: cell-based, human
Description: FIG. 1 is a graph showing cell viability and inhibition of proliferation of BJAB lymphoma cells by tris(8-quinolinolato)gallium(III), which inhibits proliferation in a dose-dependent manner up to 100% (exposure time 24 hours);
Cell viability was determined by using the CASY® Cell Counter+Analyzer System of Innovatis (Bielefeld, Germany). Settings were specifically defined for the requirements of the cells used. With this system the cell concentration can be analyzed simultaneously in three different size ranges: thus cell debris, dead cells, and viable cells could be determined in one measurement. Cells were seeded at a density of 1×10^5cells/ml and treated with different concentrations of […]; non-treated cells served as controls. After a 24-hour incubation period, cells were re-suspended completely, and 100 μl of each well were diluted in 10 ml CASYton (ready-to-use isotonic saline solution) for immediate automated counting.
In order to assess the antiproliferative effects of tris(8-quinolinolato)gallium(III), BJAB lymphoma cells were exposed to various concentrations of the drug for 24 hours. The determination of cell viability and cell count were carried out with a CASY® Cell Counter and Analyzer System.

Nc1cccc2c1CN(C1CCC(=O)NC1=O)C2=O (stereo not drawn) [Lenalidomide, lenalidomide, reference compound]
IC50 [1]: Inactive | IC50 [2]: Inactive | pIC50 ([3]; Homo sapiens): 5.23 | pIC50 ([4]; Homo sapiens, NCI-H929, 96 hours total culture): 5.28

[Ga+3].[O-]c1cccc2cccnc12.[O-]c1cccc2cccnc12.[O-]c1cccc2cccnc12 [tris(8-quinolinolato)gallium(III)]
processing of procaspase-3 and procaspase-9 [5]: induces processing of procaspase-3 (p32) and procaspase-9 (p47) | caspase-5 gene expression, upregulation [6]: 118 fold | Harakiri gene expression, upregulation [7]: 29 fold | apoptosis (DNA fragmentation) in resistant cells versus control cells [8]: higher apoptotic amounts in the resistant cells compared to the control cells | pIC50 ([1]; read-out: IC50): 6.09 | pIC50 ([2]; read-out: IC50): 6.05 | pIC50 [3]: 6.13 | pIC50 ([4]; 96 hours total culture): 5.80 | apoptosis (DNA fragmentation) in resistant cells versus control cells [9]: higher apoptotic amounts in the resistant cells compared to the control cells | pIC50 (MV4-11 leukemia cells): 5.84 | pIC50 [10]: 5.83 | pIC50 [11]: 5.54 | pIC50 [12]: 6.67 | AC50 (BJAB lymphoma cells [13]): ~1000 nM | CC50 (BJAB lymphoma cells [13]; read-out: LC50, apoptosis by DNA fragmentation): ~1000 nM | LDH release (unspecific cytotoxicity, necrosis) (BJAB lymphoma cells [14]): negligible; also recorded: no significant LDH release | pIC50 [15]: > 5.46 | concentration giving complete block of proliferation (BJAB lymphoma cells [16]; 24 hours): ≥ 2 µM | pIC50 (BJAB lymphoma cells [16]; 24 hours, read-out: IC50, inhibition of proliferation): > 6.00 | inhibition of proliferation, maximal (BJAB lymphoma cells [16]; exposure time 24 hours): up to 100%

From patent publication US20130116225A1, “METHOD FOR TREATING HEMATOLOGICAL CANCERS” (NIIKI PHARMA INC., priority 2010, published 2013)
